Data: patent publication US12492173B2, “Herbicidal substituted N-tetrazolyl aryl carboxamides” (Bayer Aktiengesellschaft, priority 2019, dated 2025)

Columns and labels:
Assay type in all cases: in vivo
Digitaria sanguinalis [1] = test: Post-emergence herbicidal action, DIGSA; parameters: key: % herbicidal action: 100 = plants died, 0 = like control
Method: (§1) [table] 2. Post-Emergence Herbicidal Action Against Harmful Plants Seeds of monocotyledonous and dicotyledonous weed and crop plants are laid out in sandy loam soil in wood-fiber pots, covered with soil and cultivated in a greenhouse under good growth conditions. 2 to 3 weeks after sowing, the test plants are treated at the one-leaf stage. The compounds of the invention, formulated in the form of wettable powders (WP) or as emulsion concentrates (EC), are then sprayed onto the green parts of the plants in the form of an aqueous suspension or emulsion at a water application rate equating to 600 to 800 l/ha, with addition of 0.2% wetting agent. After the test plants have been left to stand in the greenhouse under optimal growth conditions for about 3 weeks, the action of the preparations is assessed visually in comparison to untreated controls (herbicidal action in percent (%): 100% activity=the plants have died, 0% activity=like control plants). […] The tables below illustrate, in an exemplary manner, the post-emergence herbicidal action of the compounds according to the invention, the herbicidal activity being stated in percent. In the experiments that follow, herbicidal action of numerous inventive compounds and the known compounds that are structurally closest from D1 (WO 2012/028579 A1) and D2 (WO 2018/202535 A1) were compared under the above-specified conditions by the pre-emergence and post-emergence method. The example numbers given in the tables relate to the compounds disclosed in the respective documents. In addition to the compounds disclosed in D1 and D2, the following compounds V-1 to V-14 that are encompassed by D1 or D2 but are not compounds specified therein were used in the comparative experiments: • V-1: 2-(methylsulfanyl)-3-(methylsulfinyl)-N-(1-methyl-1H-tetrazol-5-yl)-4-(trifluoromethyl)benzamide • V-2: 2-(methylsulfanyl)-3-(methylsulfonyl)-N-(1-methyl-1H-tetrazol-5-yl)-4-(trifluoromethyl)benzamide • V-3: 2,3-bis(ethylsulfanyl)-N-(1-methyl-1H-tetrazol-5-yl)-4-(trifluoromethyl)benzamide • V-4: 2-chloro-3-(ethylsulfanyl)-N-(1-methyl-1H-tetrazol-5-yl)-4-(trifluoromethyl)benzamide • V-5: 2-chloro-4-iodo-3-(methylsulfanyl)-N-(1-methyl-1H-tetrazol-5-yl)benzamide • V-6: 2-chloro-4-iodo-3-(methylsulfinyl)-N-(1-methyl-1H-tetrazol-5-yl)benzamide • V-7: 2-chloro-4-iodo-3-(methylsulfonyl)-N-(1-methyl-1H-tetrazol-5-yl)benzamide • V-8: 2-bromo-3-(methylsulfanyl)-N-(1-methyl-1H-tetrazol-5-yl)-4-(trifluoromethyl)benzamide • V-9: 2-bromo-3-(methylsulfinyl)-N-(1-methyl-1H-tetrazol-5-yl)-4-(trifluoromethyl)benzamide • V-10: 2-bromo-3-(methylsulfonyl)-N-(1-methyl-1H-tetrazol-5-yl)-4-(trifluoromethyl)benzamide • V-11: 2-bromo-3-(ethylsulfanyl)-N-(1-methyl-1H-tetrazol-5-yl)-4-(trifluoromethyl)benzamide • V-12: 2-bromo-3-(ethylsulfinyl)-N-(1-methyl-1H-tetrazol-5-yl)-4-(trifluoromethyl)benzamide • V-13: 2-bromo-3-(ethylsulfonyl)-N-(1-methyl-1-1H-tetrazol-5-yl)-4-(trifluoromethyl)benzamide • V-14: 2-cyclopropyl-3-(ethylsulfanyl)-N-(1-methyl-1H-tetrazol-5-yl)-4-(trifluoromethyl)benzamide Herbicidal Pre-Emergence Action: […]

Hordeum murinum [2] = test: Pre-emergence herbicidal action, HORMU; settings: dosage 320 g/ha, scored visually after 3 weeks vs untreated controls (100% = plants have died)
Summary of the method: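 Greenhouse pre-emergence test: formulated compound (WP or EC) applied in water to the soil covering sown seeds, 600–800 l/ha, 0.2% wetting agent. Scored visually in percent at 3 weeks versus untreated plants.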

Digitaria sanguinalis [3] = test: Pre-emergence herbicidal action, DIGSA; settings: dosage 320 g/ha, scored visually after 3 weeks vs untreated controls (100% = plants have died)
From the text: 1. Pre-Emergence Herbicidal Action Against Harmful Plants Seeds of monocotyledonous and dicotyledonous weed plants and crop plants are laid out in sandy loam soil in wood-fiber pots and covered with soil. The compounds of the invention, formulated in the form of wettable powders (WP) or as emulsion concentrates (EC), are then applied to the surface of the covering soil in the form of an aqueous suspension or emulsion at a water application rate equating to 600 to 800 l/ha, with addition of 0.2% wetting agent. After the treatment, the pots are placed in a greenhouse and kept under good growth conditions for the trial plants. The damage to the test plants is scored visually after a test period of 3 weeks by comparison with untreated controls (herbicidal activity in percent (%): 100% activity=the plants have died, 0% activity=like control plants). […] The tables below illustrate, in an exemplary manner, the […] herbicidal action of the compounds according to the invention, the herbicidal activity being stated in percent. [table] In the experiments that follow, herbicidal action of numerous inventive compounds and the known compounds that are structurally closest from D1 (WO 2012/028579 A1) and D2 (WO 2018/202535 A1) were compared under the above-specified conditions by the pre-emergence and post-emergence method. The example numbers given in the tables relate to the compounds disclosed in the respective documents. In addition to the compounds disclosed in D1 and D2, the following compounds V-1 to V-14 that are encompassed by D1 or D2 but are not compounds specified therein were used in the comparative experiments: • V-1: 2-(methylsulfanyl)-3-(methylsulfinyl)-N-(1-methyl-1H-tetrazol-5-yl)-4-(trifluoromethyl)benzamide • V-2: 2-(methylsulfanyl)-3-(methylsulfonyl)-N-(1-methyl-1H-tetrazol-5-yl)-4-(trifluoromethyl)benzamide • V-3: 2,3-bis(ethylsulfanyl)-N-(1-methyl-1H-tetrazol-5-yl)-4-(trifluoromethyl)benzamide • V-4: 2-chloro-3-(ethylsulfanyl)-N-(1-methyl-1H-tetrazol-5-yl)-4-(trifluoromethyl)benzamide • V-5: 2-chloro-4-iodo-3-(methylsulfanyl)-N-(1-methyl-1H-tetrazol-5-yl)benzamide • V-6: 2-chloro-4-iodo-3-(methylsulfinyl)-N-(1-methyl-1H-tetrazol-5-yl)benzamide • V-7: 2-chloro-4-iodo-3-(methylsulfonyl)-N-(1-methyl-1H-tetrazol-5-yl)benzamide • V-8: 2-bromo-3-(methylsulfanyl)-N-(1-methyl-1H-tetrazol-5-yl)-4-(trifluoromethyl)benzamide • V-9: 2-bromo-3-(methylsulfinyl)-N-(1-methyl-1H-tetrazol-5-yl)-4-(trifluoromethyl)benzamide • V-10: 2-bromo-3-(methylsulfonyl)-N-(1-methyl-1H-tetrazol-5-yl)-4-(trifluoromethyl)benzamide • V-11: 2-bromo-3-(ethylsulfanyl)-N-(1-methyl-1H-tetrazol-5-yl)-4-(trifluoromethyl)benzamide • V-12: 2-bromo-3-(ethylsulfinyl)-N-(1-methyl-1H-tetrazol-5-yl)-4-(trifluoromethyl)benzamide • V-13: 2-bromo-3-(ethylsulfonyl)-N-(1-methyl-1-1H-tetrazol-5-yl)-4-(trifluoromethyl)benzamide • V-14: 2-cyclopropyl-3-(ethylsulfanyl)-N-(1-methyl-1H-tetrazol-5-yl)-4-(trifluoromethyl)benzamide Herbicidal Pre-Emergence Action: […]

Lolium rigidum = test: Post-emergence herbicidal action, LOLRI; settings: dosage 80 g/ha
Method: as §1

Cyperus esculentus = test: Post-emergence herbicidal action, CYPES; parameters: key: % herbicidal action vs untreated; 100 = plants died, 0 = like control; settings: post-emergence
Summary of the method: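 Greenhouse post-emergence test: weeds sown in sandy loam were sprayed once at one leaf, 2 to 3 weeks from sowing, with aqueous WP or EC preparations carrying 0.2% wetting agent. Effect is scored visually after about 3 weeks.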

Hordeum murinum [4] = test: Post-emergence herbicidal action, HORMU; parameters: key: % herbicidal action: 100 = plants died, 0 = like control; settings: post-emergence, dosage 80 g/ha
Method: as §1

Row | Compound | herbicidal action DIGSA (Digitaria sanguinalis [1]; Dosage 80 g/ha) | herbicidal activity HORMU (Hordeum murinum [2]) [%] | herbicidal activity DIGSA (Digitaria sanguinalis [3]) [%] | herbicidal action LOLRI (Lolium rigidum) [%] | Herbicidal action against CYPES (Cyperus esculentus; comparative experiment, 5 g of a.i./ha) | herbicidal action HORMU (Hordeum murinum [4]) [%] | herbicidal action DIGSA (Digitaria sanguinalis [1]; post-emergence, dosage 80 g/ha) [%] | herbicidal action CYPES (Cyperus esculentus; dosage 80 g/ha) [%]
1 | Cn1nnnc1NC(=O)c1ccc(C(F)(F)F)c(CS(=O)(=O)CC2CC2)c1Cl [Example 1-316] | 100 | 90 | 100 |  |  |  |  | 
2 | CSCc1c(I)ccc(C(=O)Nc2nnnn2C)c1Cl [Example 1-362] |  | 80 |  | 80 | 30 | 100 |  | 
3 | Cn1nnnc1NC(=O)c1ccc(I)c(CS(C)(=O)=O)c1Cl [Example 1-364] | 100 | 90 | 100 |  |  |  |  | 
4 | Cn1nnnc1NC(=O)c1ccc(C(F)(F)F)c(CS(C)(=O)=O)c1C(F)(F)C(F)(F)F [Example 1-552] | 90 | 80 | 100 |  |  |  |  | 
5 | CCn1nnnc1NC(=O)c1ccc(C(F)F)c(CSC)c1SC [Example 2-170] | 100 | 80 | 100 |  |  |  |  | 
6 | CCn1nnnc1NC(=O)c1ccc(C(F)(F)F)c(C[S+]([O-])CC)c1Cl (centres unmarked) [Example 2-300] |  | 100 | 100 | 80 |  | 90 | 100 | 
7 | CCn1nnnc1NC(=O)c1ccc(C(F)(F)F)c(CSCCOC)c1Cl [Example 2-305] |  | 100 |  | 80 |  | 100 |  | 100
8 | CCn1nnnc1NC(=O)c1ccc(C(F)(F)F)c(C[S+]([O-])CC2CC2)c1Cl (centres unmarked) [Example 2-315] | 100 | 100 | 100 |  |  |  |  | 
9 | CCn1nnnc1NC(=O)c1ccc(C(F)F)c(C[S+]([O-])CC)c1Cl (centres unmarked) [Example 2-324] |  | 100 | 100 |  |  | 90 | 100 | 
10 | CCCn1nnnc1NC(=O)c1ccc(C(F)(F)F)c(C[S+](C)[O-])c1SC (centres unmarked) [Example 3-162] |  | 100 |  | 80 |  | 90 |  | 
11 | CCCn1nnnc1NC(=O)c1ccc(C(F)F)c(C[S+](C)[O-])c1SC (centres unmarked) [Example 3-171] | 90 | 90 | 100 |  |  |  |  | 
12 | CCCn1nnnc1NC(=O)c1ccc(C(F)F)c(CS(C)(=O)=O)c1SC [Example 3-172] | 90 | 80 | 100 |  |  |  |  | 
